In patent publication US8691865B2 (AbbVie Inc., priority 2008, dated 2014):

Each compound was assayed against human Cav2.2 (Homo sapiens, UniProt Q00975) (assay: Assessment of calcium channel activity using FLIPR (Ca2+ influx in IMR32 cells)). Details: not given.
Type: cell-based
Protocol: (i) In Vitro Methods—Assessment of Calcium Channel Activity Using FLIPR:
The IMR32 cells were maintained in MEM media containing 10% (v/v) FBS, 1% (v/v) antibiotic/antimitotic, 1% (v/v) sodium pyruvate and 1% (v/v) MEM NEAA. Following dissociation in 0.05% (v/v) trypsin/EDTA, cells were seeded into black 1×96-well plates (Corning Cellbind) at a density of 1−1.2×10^5 cells/well and incubated in the maintenance media above for 48 hours at 37° C. […] To determine the IC50 values, the percent inhibition of the compound at each concentration was determined relative to the activity in the absence of inhibitor, and data was fitted using non-linear regression sigmoidal dose response curve analysis with GraphPad Prism®.

Sequence of human Cav2.2 (Q00975 whole entry): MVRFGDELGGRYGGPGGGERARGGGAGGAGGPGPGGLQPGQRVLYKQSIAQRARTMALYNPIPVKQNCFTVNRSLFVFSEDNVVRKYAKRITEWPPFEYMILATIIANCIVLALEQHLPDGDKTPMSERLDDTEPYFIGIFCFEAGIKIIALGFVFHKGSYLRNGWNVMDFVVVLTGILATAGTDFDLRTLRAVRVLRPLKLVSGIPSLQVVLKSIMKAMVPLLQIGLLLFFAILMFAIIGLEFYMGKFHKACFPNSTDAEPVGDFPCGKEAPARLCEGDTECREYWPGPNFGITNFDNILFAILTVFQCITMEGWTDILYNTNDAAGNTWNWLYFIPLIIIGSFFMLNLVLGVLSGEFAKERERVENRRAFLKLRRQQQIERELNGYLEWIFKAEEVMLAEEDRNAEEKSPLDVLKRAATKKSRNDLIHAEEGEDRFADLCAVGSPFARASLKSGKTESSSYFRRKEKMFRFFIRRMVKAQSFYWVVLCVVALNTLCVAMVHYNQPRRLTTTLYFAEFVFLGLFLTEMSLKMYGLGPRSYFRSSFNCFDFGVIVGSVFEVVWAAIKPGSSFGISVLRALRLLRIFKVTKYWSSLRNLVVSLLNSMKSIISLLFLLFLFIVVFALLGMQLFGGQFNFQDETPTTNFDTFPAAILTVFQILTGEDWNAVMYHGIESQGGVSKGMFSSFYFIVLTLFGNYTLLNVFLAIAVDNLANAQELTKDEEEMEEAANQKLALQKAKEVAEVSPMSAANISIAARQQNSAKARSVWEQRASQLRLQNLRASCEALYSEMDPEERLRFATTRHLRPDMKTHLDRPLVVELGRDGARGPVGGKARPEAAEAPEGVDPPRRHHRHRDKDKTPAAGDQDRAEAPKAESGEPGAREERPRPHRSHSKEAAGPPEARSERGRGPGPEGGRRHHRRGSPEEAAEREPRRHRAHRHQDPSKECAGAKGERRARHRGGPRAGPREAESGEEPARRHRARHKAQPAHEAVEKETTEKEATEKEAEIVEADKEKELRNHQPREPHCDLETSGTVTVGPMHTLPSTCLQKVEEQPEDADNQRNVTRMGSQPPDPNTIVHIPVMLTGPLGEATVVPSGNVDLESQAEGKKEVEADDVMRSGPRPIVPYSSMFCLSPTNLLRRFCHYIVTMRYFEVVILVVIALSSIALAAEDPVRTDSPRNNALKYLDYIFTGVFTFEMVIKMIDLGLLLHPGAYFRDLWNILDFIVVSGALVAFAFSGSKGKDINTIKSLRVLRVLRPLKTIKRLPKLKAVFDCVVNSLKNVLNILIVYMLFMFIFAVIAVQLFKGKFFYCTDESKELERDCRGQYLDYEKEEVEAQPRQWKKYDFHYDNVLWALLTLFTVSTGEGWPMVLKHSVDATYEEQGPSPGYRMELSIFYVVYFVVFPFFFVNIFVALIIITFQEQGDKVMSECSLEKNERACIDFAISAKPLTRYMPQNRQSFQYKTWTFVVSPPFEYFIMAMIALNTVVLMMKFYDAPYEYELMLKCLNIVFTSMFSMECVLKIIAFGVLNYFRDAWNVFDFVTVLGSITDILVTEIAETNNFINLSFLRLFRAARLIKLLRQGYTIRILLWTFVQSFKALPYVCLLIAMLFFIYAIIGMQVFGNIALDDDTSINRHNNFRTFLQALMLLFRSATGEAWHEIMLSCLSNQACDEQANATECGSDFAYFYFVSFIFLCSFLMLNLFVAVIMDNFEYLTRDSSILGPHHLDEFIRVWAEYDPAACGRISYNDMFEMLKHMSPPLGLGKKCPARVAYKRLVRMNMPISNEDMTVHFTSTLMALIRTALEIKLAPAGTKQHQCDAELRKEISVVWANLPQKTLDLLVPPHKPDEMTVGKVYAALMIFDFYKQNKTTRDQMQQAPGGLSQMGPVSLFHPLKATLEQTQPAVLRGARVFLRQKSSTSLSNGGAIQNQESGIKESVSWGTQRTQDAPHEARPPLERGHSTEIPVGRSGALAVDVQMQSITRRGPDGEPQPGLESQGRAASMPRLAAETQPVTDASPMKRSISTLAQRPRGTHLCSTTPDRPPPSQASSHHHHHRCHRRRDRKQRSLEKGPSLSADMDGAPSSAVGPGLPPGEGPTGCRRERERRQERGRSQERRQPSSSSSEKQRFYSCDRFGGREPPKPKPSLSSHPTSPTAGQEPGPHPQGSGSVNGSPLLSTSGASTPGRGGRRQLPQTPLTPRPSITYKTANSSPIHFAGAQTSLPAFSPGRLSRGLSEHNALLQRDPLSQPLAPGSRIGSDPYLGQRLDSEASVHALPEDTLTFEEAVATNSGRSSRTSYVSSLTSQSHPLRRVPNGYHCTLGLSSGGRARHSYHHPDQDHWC
Sequence of human Cav2.2 (P54289 25-956 partner limits assumed): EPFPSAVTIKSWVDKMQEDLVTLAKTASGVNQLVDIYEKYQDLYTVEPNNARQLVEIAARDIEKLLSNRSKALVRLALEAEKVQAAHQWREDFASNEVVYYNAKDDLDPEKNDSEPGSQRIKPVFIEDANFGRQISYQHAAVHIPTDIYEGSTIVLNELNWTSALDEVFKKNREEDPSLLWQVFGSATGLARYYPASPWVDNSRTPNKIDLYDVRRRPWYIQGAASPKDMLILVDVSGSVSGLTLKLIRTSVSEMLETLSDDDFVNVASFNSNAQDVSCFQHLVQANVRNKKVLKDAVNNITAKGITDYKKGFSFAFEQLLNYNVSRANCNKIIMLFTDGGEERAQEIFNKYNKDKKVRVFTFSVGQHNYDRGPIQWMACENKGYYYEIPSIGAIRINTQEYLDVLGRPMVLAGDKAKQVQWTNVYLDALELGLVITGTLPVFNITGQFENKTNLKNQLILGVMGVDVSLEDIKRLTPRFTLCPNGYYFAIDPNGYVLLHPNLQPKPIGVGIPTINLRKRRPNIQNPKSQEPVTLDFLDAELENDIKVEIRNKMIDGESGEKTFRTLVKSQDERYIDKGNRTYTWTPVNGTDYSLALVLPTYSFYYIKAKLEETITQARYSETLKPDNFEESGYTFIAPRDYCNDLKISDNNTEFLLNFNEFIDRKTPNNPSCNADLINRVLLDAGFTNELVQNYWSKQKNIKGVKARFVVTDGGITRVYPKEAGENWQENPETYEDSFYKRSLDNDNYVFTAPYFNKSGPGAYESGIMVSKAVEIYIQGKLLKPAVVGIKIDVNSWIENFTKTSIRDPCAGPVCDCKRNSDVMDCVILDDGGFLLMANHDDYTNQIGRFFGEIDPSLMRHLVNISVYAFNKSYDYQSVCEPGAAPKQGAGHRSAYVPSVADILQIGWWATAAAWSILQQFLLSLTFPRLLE
Sequence of human Cav2.2 (P54289 957-1103 partner limits assumed): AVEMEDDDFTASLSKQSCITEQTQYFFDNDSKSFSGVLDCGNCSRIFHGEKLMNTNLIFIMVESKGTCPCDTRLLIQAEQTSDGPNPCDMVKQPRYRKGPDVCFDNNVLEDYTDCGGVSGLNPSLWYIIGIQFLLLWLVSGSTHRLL
Sequence of human Cav2.2 (P54284 whole entry partner): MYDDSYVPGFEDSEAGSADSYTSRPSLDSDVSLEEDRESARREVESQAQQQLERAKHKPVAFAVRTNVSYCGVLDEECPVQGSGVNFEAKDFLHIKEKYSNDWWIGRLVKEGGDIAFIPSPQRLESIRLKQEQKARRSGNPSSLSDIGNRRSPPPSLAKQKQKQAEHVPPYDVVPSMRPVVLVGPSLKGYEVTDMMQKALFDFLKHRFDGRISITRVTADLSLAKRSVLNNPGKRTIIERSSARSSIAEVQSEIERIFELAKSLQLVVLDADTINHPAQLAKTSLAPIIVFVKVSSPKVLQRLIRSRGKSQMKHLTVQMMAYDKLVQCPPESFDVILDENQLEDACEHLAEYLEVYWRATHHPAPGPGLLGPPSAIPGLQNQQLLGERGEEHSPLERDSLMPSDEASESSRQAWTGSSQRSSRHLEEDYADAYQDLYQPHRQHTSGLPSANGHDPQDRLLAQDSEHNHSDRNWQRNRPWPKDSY

Compound | IC50 [µM]
FC(F)(F)c1cccc(N2C[C@H]3CC[C@H](NCc4cc5ccccc5[nH]4)[C@H]3C2)n1 [Example 612, (3aR,4S,6aS)-N-(1H-indol-2-ylmethyl)-2-[6-(trifluoromethyl)pyridin-2-yl]octahydrocyclopenta[c]pyrrol-4-amine] | 2.24
CCCC(C(=O)NC1CCC2CN(Cc3ccc(F)cc3)CC21)N(C)C(=O)OC(C)(C)C (single isomer, unassigned) [Example 315] | 5.36
CN[C@@H](CC(C)C)C(=O)N[C@H]1CC[C@@H]2CN(c3cccc(F)c3F)C[C@@H]21 [Example 730, N-[(3aR,4S,6aS)-2-(2,3-difluorophenyl)octahydrocyclopenta[c]pyrrol-4-yl]-N^2-methyl-L-leucinamide] | 1.26
CN[C@@H](CC(C)C)C(=O)N[C@H]1CC[C@@H]2CN(c3ccccc3C(F)(F)F)C[C@@H]21 [Example 618, N^2-methyl-N-{(3aR,4S,6aS)-2-[2-(trifluoromethyl)phenyl]octahydrocyclopenta[c]pyrrol-4-yl}-L-leucinamide] | 0.63
CC(C)(C)NC(=O)N[C@H]1CC[C@@H]2CN(c3cccc(C(F)(F)F)n3)C[C@@H]21 [Example 711, 1-tert-butyl-3-{(3aR,4S,6aS)-2-[6-(trifluoromethyl)pyridin-2-yl]octahydrocyclopenta[c]pyrrol-4-yl}urea] | 1.38
CC(C)(C)C[C@H](N)C(=O)N[C@H]1CC[C@@H]2CN(S(=O)(=O)c3cccc(C(F)(F)F)c3)C[C@@H]21 [Example 392, 4-methyl-N^1-((3aR,4S,6aS)-2-{[3-(trifluoromethyl)phenyl]sulfonyl}octahydrocyclopenta[c]pyrrol-4-yl)-L-leucinamide] | 0.95
O=C(N[C@H]1CC[C@@H]2CN(c3ccc(F)cc3)C[C@@H]21)[C@@H]1C[C@@H](F)CN1 [Example 641, (4R)-4-fluoro-N-[(3aR,4S,6aS)-2-(4-fluorophenyl)octahydrocyclopenta[c]pyrrol-4-yl]-L-prolinamide] | 26.2
O=C(N[C@H]1CC[C@H]2CN(Cc3ccc(F)cc3)C[C@H]21)C(C1CCCCC1)C1CCCCC1 [Example 56, 2,2-dicyclohexyl-N-[(3aS,4S,6aR)-2-(4-fluorobenzyl)octahydrocyclopenta[c]pyrrol-4-yl]acetamide] | 0.74
Fc1cc(F)cc(-c2n[nH]cc2CN[C@H]2CC[C@@H]3CN(c4cccc(C(F)(F)F)n4)C[C@@H]32)c1 [Example 687, (3aR,4S,6aS)-N-{[3-(3,5-difluorophenyl)-1H-pyrazol-4-yl]methyl}-2-[6-(trifluoromethyl)pyridin-2-yl]octahydrocyclopenta[c]pyrrol-4-amine] | 1.27
CC(C)C[C@@H](C(=O)N[C@@H]1CC[C@H]2CN(S(=O)(=O)C3CC3)C[C@H]21)N1CCCC1 [Example 347, (2S)-N-[(3aS,4R,6aR)-2-(cyclopropylsulfonyl)octahydrocyclopenta[c]pyrrol-4-yl]-4-methyl-2-pyrrolidin-1-ylpentanamide] | > 5.2
O=C(N[C@H]1CC[C@@H]2CN(c3cccc(C(F)(F)F)c3F)C[C@@H]21)[C@@H]1C[C@@H](F)CN1 [Example 623, (4R)-4-fluoro-N-{(3aR,4S,6aS)-2-[2-fluoro-3-(trifluoromethyl)phenyl]octahydrocyclopenta[c]pyrrol-4-yl}-L-prolinamide] | 1.32
CCC[C@H](NC)C(=O)N[C@H]1CC[C@@H]2CN(c3ccc(C(F)(F)F)cc3)C[C@@H]21 [Example 759, N^2-methyl-N-{(3aR,4S,6aS)-2-[4-(trifluoromethyl)phenyl]octahydrocyclopenta[c]pyrrol-4-yl}-L-norvalinamide] | 13
CC(C)N[C@H]1CC[C@@H]2CN(c3cccc(C(F)(F)F)n3)C[C@@H]21 [Example 609, (3aR,4S,6aS)-N-isopropyl-2-[6-(trifluoromethyl)pyridin-2-yl]octahydrocyclopenta[c]pyrrol-4-amine] | 1.45
O=C(N[C@@H]1CC[C@H]2CN(CCCCCC(c3ccc(F)cc3)c3ccc(F)cc3)C[C@H]21)C(C1CCCCC1)C1CCCCC1 [Example 78, N-{(3aS,4R,6aR)-2-[6,6-bis(4-fluorophenyl)hexyl]octahydrocyclopenta[c]pyrrol-4-yl}-2,2-dicyclohexylacetamide] | 1.34
CN[C@@H](CC(C)C)C(=O)N[C@H]1CC[C@@H]2CN(c3cccc(C(F)(F)F)c3)C[C@@H]21 [Example 606, N^2-methyl-N-{(3aR,4S,6aS)-2-[3-(trifluoromethyl)phenyl]octahydrocyclopenta[c]pyrrol-4-yl}-L-leucinamide] | 1.19
O=C(N[C@H]1CC[C@H]2CN(Cc3cccc(C(F)(F)F)c3)C[C@H]21)C1CCCC1 (relative stereo) [Example 129, N-{(3aS*,4S*,6aR*)-2-[3-(trifluoromethyl)benzyl]octahydrocyclopenta[c]pyrrol-4-yl}cyclopentanecarboxamide] | 2.31
O=S(=O)(N[C@H]1CC[C@@H]2CN(c3cccc(C(F)(F)F)n3)C[C@@H]21)c1cccc(F)c1 [Example 702, 3-fluoro-N-{(3aR,4S,6aS)-2-[6-(trifluoromethyl)pyridin-2-yl]octahydrocyclopenta[c]pyrrol-4-yl}benzenesulfonamide] | 2.55
Fc1ccc2[nH]c(CN[C@H]3CC[C@@H]4CN(c5cccc(C(F)(F)F)c5)C[C@@H]43)cc2c1 [Example 616, (3aR,4S,6aS)-N-[(5-fluoro-1H-indol-2-yl)methyl]-2-[3-(trifluoromethyl)phenyl]octahydrocyclopenta[c]pyrrol-4-amine] | 4.22
CCCCc1nc(CN[C@H]2CC[C@@H]3CN(c4cccc(C(F)(F)F)n4)C[C@@H]32)c[nH]1 [Example 674, (3aR,4S,6aS)-N-[(2-butyl-1H-imidazol-4-yl)methyl]-2-[6-(trifluoromethyl)pyridin-2-yl]octahydrocyclopenta[c]pyrrol-4-amine] | 0.53
Cc1ccc(C(=O)N[C@H]2CC[C@@H]3CN(c4cccc(C(F)(F)F)n4)C[C@@H]32)o1 [Example 576, 5-methyl-N-{(3aR,4S,6aS)-2-[6-(trifluoromethyl)pyridin-2-yl]octahydrocyclopenta[c]pyrrol-4-yl}-2-furamide] | 1.08
O=C(N[C@H]1CC[C@@H]2CN(c3ccc(C(F)(F)F)cn3)C[C@@H]21)[C@@H]1C[C@@H](F)CN1 [Example 780, (4R)-4-fluoro-N-{(3aR,4S,6aS)-2-[5-(trifluoromethyl)pyridin-2-yl]octahydrocyclopenta[c]pyrrol-4-yl}-L-prolinamide] | 14
O=C(N[C@H]1CC[C@H]2CN(Cc3cccc(C(F)(F)F)c3)C[C@H]21)C1CCCCC1 (relative stereo) [Example 127, N-{(3aS*,4S*,6aR*)-2-[3-(trifluoromethyl)benzyl]octahydrocyclopenta[c]pyrrol-4-yl}cyclohexanecarboxamide] | 1.26
FC(F)(F)c1cccc(N2C[C@H]3CC[C@H](NCc4c[nH]nc4-c4ccccc4)[C@H]3C2)n1 [Example 682, (3aR,4S,6aS)-N-[(3-phenyl-1H-pyrazol-4-yl)methyl]-2-[6-(trifluoromethyl)pyridin-2-yl]octahydrocyclopenta[c]pyrrol-4-amine] | 0.87

Same assay, conditions: read-out: IC50 (μM) or percent inhibition (* indicates 3 minute incubation, otherwise 60 minute); IC50; 60 minute pre-incubation with compound; IMR32 cells, 80 mM KCl depolarization

Compound | IC50 [µM]
O=C(N[C@@H]1CC[C@H]2CN(CCC(c3ccccc3)c3ccccc3)C[C@H]21)C(C1CCCCC1)C1CCCCC1 [Example 79, 2,2-dicyclohexyl-N-[(3aS,4R,6aR)-2-(3,3-diphenylpropyl)octahydrocyclopenta[c]pyrrol-4-yl]acetamide] | 0.94
O=C(N[C@H]1CC[C@H]2CN(CCCc3cccc(Cl)c3)C[C@H]21)C(C1CCCCC1)C1CCCCC1 [Example 67, N-{(3aS,4S,6aR)-2-[3-(3-chlorophenyl)propyl]octahydrocyclopenta[c]pyrrol-4-yl}-2,2-dicyclohexylacetamide] | 1.32
CCC[C@H](NC)C(=O)N[C@H]1CC[C@@H]2CN(C(=O)c3cccc(C(F)(F)F)c3)C[C@@H]21 [Example 554, N^2-methyl-N^1-{(3aR,4S,6aS)-2-[3-(trifluoromethyl)benzoyl]octahydrocyclopenta[c]pyrrol-4-yl}-L-norvalinamide] | 10.3
CC[C@H](C(=O)N[C@H]1CC[C@H]2CN([C@@H](C)c3ccccc3)C[C@H]21)c1ccccc1 [Example 212, (2S)-2-phenyl-N-{(3aS,4S,6aR)-2-[(1S)-1-phenylethyl]octahydrocyclopenta[c]pyrrol-4-yl}butanamide] | 4.13
CC(C)(C)[C@@H](C(=O)N[C@@H]1CC[C@H]2CN(Cc3ccccc3)C[C@H]21)c1ccccc1 [Example 32, (2R)-N-[(3aS,4R,6aR)-2-benzyloctahydrocyclopenta[c]pyrrol-4-yl]-3,3-dimethyl-2-phenylbutanamide] | 1.42
CCC[C@H](NC)C(=O)N[C@H]1CC[C@@H]2CN(Cc3ccc(C(F)(F)F)cc3)C[C@@H]21 [Example 377, N^2-methyl-N^1-{(3aR,4S,6aS)-2-[4-(trifluoromethyl)benzyl]octahydrocyclopenta[c]pyrrol-4-yl}-L-norvalinamide] | 13.3
CC(C)C(C(=O)N[C@H]1CC[C@@H]2CN(Cc3ccc(F)cc3)C[C@@H]21)c1ccccc1 (stereo partly drawn) [Example 89, N-[(3aR,4S,6aS)-2-(4-fluorobenzyl)octahydrocyclopenta[c]pyrrol-4-yl]-3-methyl-2-phenylbutanamide] | 2.01
N-(tert-butoxycarbonyl)-N-((3aR,4S,6aS)-2-{[3-(trifluoromethyl)phenyl]sulfonyl}octahydrocyclopenta[c]pyrrol-4-yl)-L-phenylalaninamide [Example 269] | 1.9
